Here are results for 34 molecules from article PMC9176681, “Evaluation of a flavonoid library for inhibition of interaction of HIV-1 integrase with human LEDGF/p75 towards a structure–activity relationship” (Annals of Medicine, 2022).

Values joined by “and” are separate entries in the source; they are usually repeats but may differ in a detail not shown here. Equal values may be shown once. Read-outs that look alike come from different tables or passages of the source.

In assay [1] the target is T1, IN-LEDGF/p75 interaction (Human immunodeficiency virus type 1 group M subtype B, UniProt P12497, C1427S/F1332K).
T1 construct: His6 (C); made in house; host or cells: E. coli
Put plainly: biochemical. The format is binding, HIV-1. As to conditions: for inhibitory activity against IN-LEDGF/p75 interaction (in words): HTRF, 50 μM final concentration. The method, then: The inhibitory activities against the IBD-IN interaction were tested using HTRF assays according to a previous study. […] “Protein MIX” was prepared by mixing His6-HIV-1 IN (final concentration of 50 nM) and GST-IBD (final concentration of 25) in the assay buffer (25 mM Tris-HCl pH 7.5, 150 mM NaCl, 1 mg/ml BSA, 0.1% NP40, 2 mM MgCl2). […] To the 8 μl “protein MIX”, 2 μl of DMSO or compound (50 µM) dissolved in DMSO was added and mixed thoroughly. The concentrations of DMSO in the assay should be no more than 4%. The plate was incubated for 30 min at 25 °C. Then 10 μl premixed antibodies were added and mixed. The assay plate was incubated in the dark for 1 h at 25 °C. DMSO instead of the compound was used as a negative control. BI224436 was used as a positive compound for inhibition of IN-LEDGF/p75 interaction. […] Data were analysed and visualised in GraphPad Prism 5.0.
A general note: TR-FRET usually uses a lanthanide donor and a delayed reading to cut background.

For assay [2], the target named is T1, IN-LEDGF/p75 interaction. Further details: method as in PMID 24663024. The settings on record: previous experiment result; read-out: IC50, inhibition of IN-LEDGF/p75 interaction, previous experiment result; cited from earlier work.
Another assay concerns the target T2, IN (Human immunodeficiency virus type 1 group M subtype B, UniProt P12497, C1427S/F1332K).
T2 construct: His6 (C); made in house; host or cells: E. coli
Kind of assay: Biolayer interferometry (BLI) binding assay. Further details: species or system HIV-1. The settings on record: 30 °C, PBS with 0.01% Tween-20. For orientation: Biolayer interferometry detects binding as a change in optical thickness at a sensor tip.

On to `Cc1nc2ccccc2c(-c2ccc3c4c(ccnc24)CCO3)c1[C@H](OC(C)(C)C)C(=O)O` [BI224436, reference compound], for which the IC50 at IN-LEDGF/p75 interaction [1] was 18.8 nM; at IN-LEDGF/p75 interaction [2], 11 nM. Consider `CC(C)=CCc1cc(-c2oc3cc(O)c(CC=C(C)C)c(O)c3c(=O)c2O)ccc1O` [compound 1], for which, at IN-LEDGF/p75 interaction [1], the “inhibitory activity against IN-LEDGF/p75 interaction (in words)” value (from here on “inhibitory activity”) is given as “reduced”.

In the case of `CC(C)=CCc1cc(-c2oc3cc(O)cc(O)c3c(=O)c2O)ccc1O` [compound 2], at IN-LEDGF/p75 interaction [1], the “inhibitory activity” value was “reduced”. In the case of `COc1cc(-c2oc3cc(O)cc(O)c3c(=O)c2O)ccc1O` [compound 3], the “inhibitory activity” value at IN-LEDGF/p75 interaction [1] is “reduced”. On the same count and under the same terms, as for `COc1ccc(-c2oc3cc(O)cc(O)c3c(=O)c2O)cc1` [compound 4], the entry is “reduced”; as for `O=c1c(O)c(-c2ccc(O)c(O)c2)oc2cc(O)cc(O)c12` [compound 10], “effectively inhibited”; as for `COc1ccc(-c2oc3cc(O)cc(O)c3c(=O)c2O)cc1O` [compound 12], “reduced”.

As for `COc1cc(O)c2c(=O)c(OC)c(-c3ccc(O)c(OC)c3)oc2c1` [compound 14], the “inhibitory activity” value on IN-LEDGF/p75 interaction [1] is “reduced”.

`COc1ccc(-c2oc3cc(O)cc(O)c3c(=O)c2OC)cc1O` [compound 15]: the “inhibitory activity” value at IN-LEDGF/p75 interaction [1] is recorded as “reduced”. Turning to `COc1cc2oc(-c3ccc(O)c(O)c3)c(OC)c(=O)c2c(O)c1OC` [compound 16], the “inhibitory activity” value on IN-LEDGF/p75 interaction [1] is given as “effectively inhibited”.

Take `COc1cc(-c2oc3cc(O)c(OC)c(O)c3c(=O)c2OC)ccc1O` [compound 17]: the “inhibitory activity” value on IN-LEDGF/p75 interaction [1] was “reduced”. `COc1cc(-c2oc3cc(OC)c(OC)c(O)c3c(=O)c2OC)ccc1O` [compound 19]: the “inhibitory activity” value on IN-LEDGF/p75 interaction [1] is on record as “reduced”. On to `O=c1cc(-c2ccc(O)c(O)c2)oc2cc(O)cc(O)c12` [compound 30, Luteolin], for which the “inhibitory activity” value on IN-LEDGF/p75 interaction [1] is “most potent”. In addition, binding on IN was characterised by a dissociation constant (Kd) of 1300 nM.

As to `O=C1c2ccc(O)cc2OC(c2cc(O)c(O)c(O)c2)C1O` (stereo not shown) [compound 43], the “inhibitory activity” value on IN-LEDGF/p75 interaction [1] is “efficiently blocked”. For the molecule `O=C1c2c(O)cc(O)cc2OC(c2cc(O)c(O)c(O)c2)[C@H]1O` (stereo partly shown) [compound 47], the “inhibitory activity” value on IN-LEDGF/p75 interaction [1] was “efficiently blocked”. Turning to `COc1cc(O)c2c(c1)OC(c1ccc(O)cc1)CC2=O` (stereo not shown) [compound 49], on IN-LEDGF/p75 interaction [1], the “inhibitory activity” value was “loss of activity”.

In the case of `COc1cc(C2CC(=O)c3c(cc(O)c(OC)c3O)O2)cc(O)c1OC` (stereo not shown) [compound 50], the “inhibitory activity” value against IN-LEDGF/p75 interaction [1] is “loss of activity”. As for `COc1c(O)cc2c(c1O)C(=O)CC(c1ccc(O)cc1)O2` (stereo not shown) [compound 52], the “inhibitory activity” value at IN-LEDGF/p75 interaction [1] was “loss of activity”. As to `COc1c(O)cc(O)c2c1O[C@@H](c1ccccc1O)CC2=O` [compound 60], on IN-LEDGF/p75 interaction [1], the “inhibitory activity” value is given as “loss of activity”. Take `CC(C)=CCc1c(O)ccc2c1O[C@@H](c1ccc(O)cc1)CC2=O` [compound 64]: the “inhibitory activity” value against IN-LEDGF/p75 interaction [1] was “loss of activity”.

On to `Oc1cc(O)c2c(c1)O[C@H](c1cc(O)c(O)c(O)c1)[C@H](O)C2` [compound 68], for which, at IN-LEDGF/p75 interaction [1], the “inhibitory activity” value is “effectively blocked”. On the same count and under the same terms, as for `Oc1cc(O)c2c(c1)O[C@H](c1ccc(O)c(O)c1)[C@@H](O)C2` [compound 70], the entry is “effectively blocked”. Take `Oc1cc(O)c2c(c1)O[C@H](c1ccc(O)c(O)c1)[C@H](O)C2` [compound 71]: the “inhibitory activity” value at IN-LEDGF/p75 interaction [1] is on record as “effectively blocked”. On to `COc1cc(O)c(OC)c(O)c1C(=O)/C=C/c1ccccc1` [compound 89], for which the “inhibitory activity” value against IN-LEDGF/p75 interaction [1] is on record as “drop in protein-protein interaction disruption”. Same read-out and setting: as for `COc1ccccc1/C=C/C(=O)c1c(OC)cc(O)c(OC)c1O` [compound 93], the entry is “drop in protein-protein interaction disruption”.

On to `COc1cc(O)c(CC=C(C)C)c(O)c1C(=O)/C=C/c1ccc(O)cc1` [compound 95], for which, on IN-LEDGF/p75 interaction [1], the “inhibitory activity” value was “drop in protein-protein interaction disruption”. With `C=C(C)C(O)Cc1c(O)cc(OC)c(C(=O)/C=C/c2ccc(O)cc2)c1O` (stereo not shown) [compound 96], the “inhibitory activity” value on IN-LEDGF/p75 interaction [1] was “drop in protein-protein interaction disruption”. On to `COc1cc(O)c(C(=O)/C=C/c2ccccc2)c(O)c1OC` [compound 99], for which, at IN-LEDGF/p75 interaction [1], the “inhibitory activity” value is on record as “drop in protein-protein interaction disruption”. For `O=C1c2ccc(O)cc2OC(c2cc(O)c(O)c(O)c2)C1O` (stereo not shown) [dihydrorobinetin], at IN, the Kd – broadly, the constant that tells how readily two partners part at equilibrium – came to 1400 nM. Turning to `Oc1cc(O)c2c(c1)O[C@H](c1ccc(O)c(O)c1)[C@H](O)C2` [epicatechin], the Kd at IN amounted to 1700 nM. The Kd values of the last two molecules are within 1.5-fold of each other. With `O=c1c(-c2ccc(O)cc2)coc2cc(O)cc(O)c12` [genistein], on IN-LEDGF/p75 interaction [1], the “inhibitory activity” value is on record as “worst inhibitory activity”. The dissociation constant (Kd) on IN is 3600 nM and 2700 nM.

Take `COc1cc(O)cc(O)c1C(=O)/C=C/c1ccc(O)cc1` [helichrysetin]: on IN, the Kd was found to be 2700 nM. On IN, `O=c1c(O)c(-c2cc(O)c(O)c(O)c2)oc2cc(O)cc(O)c12` [myricetin] returned a dissociation constant (Kd) of 1000 nM. Turning to `O=C1C[C@@H](c2ccc(O)cc2)Oc2cc(O)cc(O)c21` [naringenin], the dissociation constant (Kd) at IN is 1400 nM and 1900 nM.
